{"source": "patent US7371742B2", "about": "“Porphyrin derivatives for photodynamic therapy” (Institut Curie, priority 2001, dated 2008)", "key": {"[1]": {"tested_on": "L-1210 cells", "experiment": "Cytotoxicity L-1210 (no light), cytostatic activity", "type": "cell-based, human", "description": "Column L1210 corresponds to the cytostatic activity."}, "[2]": {"tested_on": "RBY-79 (indifferently named Y-79) cells", "source_text": "(§1) Columns HT29 and Y79 (═RBY79), without light, correspond to the cytotoxic activity."}, "[3]": {"tested_on": "human colic adenocarcinoma cell line HT29", "experiment": "HT29 cell survival (MTT assay) after 24 h incubation, with or without light irradiation", "procedure": "(§2) HT29 cells were cultivated in Dulbecco's MEM supplemented with 10% fetal calf serum (FCS). Cells from log-phase culture were seeded in 24-microwell plates (1 mL-5×10^4 cells/well) and kept at 37° C. in a water-jacketed incubator for 2 days under an air/CO2 atmosphere (5% CO2). Tested compounds, in DMSO solution, were added under the minimum volume (5 μL) to reach a concentration ranging from 0.1 to 10 μg/mL. Controls cells received 5 μL of DMSO free of dye. Plates were incubated 24 h, then medium was removed and the cells were washed twice with phosphate buffered saline (PBS) before addition of fresh medium free of drug and irradiation with visible light using a home made “light box” giving a fluence of 3.8 mW/cm^2 on the whole visible spectrum. Irradiation with red light was carried out using the same device fitted with an orange filter (0% T at 520 nm and 80% T at 590 nm) leading to a fluence of 2 mW/cm^2.\n(§3) Plates were reincubated for 3 days before evaluation of the cell survival using the MTT assay (T. Mosmann, “Rapid calorimetric assay for cellular growth and survival. Application to proliferation assays”. J. Immunol. Methods 65,55-63,1983) using 30 min incubation with 100 μg well of 3-[4,5-dimethylthiazol-2-yl]-2,5-diphenyl tetrazolium bromide (MTT, Sigma). After removal of the medium, formazan crystals were taken up with 100 μL of DMSO and absorbance at 540 ni was measured with a Bio-Rad microplate reader (model 450); survival was expressed as % of untreated controls."}, "[4]": {"tested_on": "RBY-79 (indifferently named Y-79) cells", "experiment": "RBY-79 (Y79) cell cytotoxicity / photocytotoxicity", "source_text": "as §1"}, "[5]": {"tested_on": "tumoral cells", "experiment": "Antitumoral photodynamic activity in general (remarks on Tables B and C)", "type": "cell-based, human", "conditions": "under appropriate irradiation", "description": "The main results for antitumoral effects are reported in Table B, showing the rate of photocytotoxicity. The higher the percentage, the higher the antitumnoral or antiviral effect.\nConcerning the antitumoral activity, the compounds obtained by the inventors are active, under appropriate irradiation indicated towards tumoral cells in which these derivatives are able to accumulate."}, "[6]": {"tested_on": "human colic adenocarcinoma cell line HT29", "procedure": "as §2, §3"}, "[7]": {"conditions": "read-out: HT 29 IC50 (μM) with 2J/cm^2, irradiation with filter (0% T at 520 nm, 80% T at 590 nm), 3.5 mW/cm^2, 10 min"}, "[8]": {"conditions": "read-out: HT 29 IC50 (μM) without light, without light (cytotoxic activity)"}, "[9]": {"conditions": "read-out: Y79 IC50 (μM) without light, without light (cytotoxic activity)"}, "[10]": {"conditions": "with light, compared with its cytotoxicity"}, "[11]": {"conditions": "without light, remark of the inventors"}, "[12]": {"conditions": "read-out: Y79 IC50 (μM) With 2J/cm^2, irradiation with filter (0% T at 520 nm, 80% T at 590 nm), 3.5 mW/cm^2, 10 min"}}, "note": "Read-outs that look alike come from different tables or passages of the source."}
{"molecule": "OC[C@H]1O[C@@H](SCc2ccc(-c3c4nc(c(-c5ccc(CS[C@@H]6O[C@H](CO)[C@@H](O)[C@H](O)[C@H]6O)cc5)c5ccc([nH]5)c(-c5ccc(CS[C@@H]6O[C@H](CO)[C@@H](O)[C@H](O)[C@H]6O)cc5)c5nc(c(-c6ccc(CS[C@@H]7O[C@H](CO)[C@@H](O)[C@H](O)[C@H]7O)cc6)c6ccc3[nH]6)C=C5)C=C4)cc2)[C@H](O)[C@@H](O)[C@@H]1O", "note": "[Compound 65, TPP(p-CH2-S-β-GluOH)4]", "values": [{"measurement": "Cytotoxicity L-1210 (no light), % at 10 μg/ml", "setting": "[1]", "result": 16, "unit": "%"}, {"measurement": "cytotoxic for Y79 (in words)", "setting": "[2]", "result": "cytotoxic"}, {"measurement": "IC50", "setting": "[3]; [7]", "result": 5.2, "unit": "µM"}, {"measurement": "IC50", "setting": "[3]; [8]", "result": "> 10", "unit": "µM"}, {"measurement": "RBY-79, concentration giving 50% with light or not", "setting": "[4]; 50% effect, with light or not", "result": 50, "unit": "% at 5 μg/ml"}, {"measurement": "Y79 IC50 (μM) With 2J/cm^2", "setting": "[4]; irradiation with filter (0% T at 520 nm, 80% T at 590 nm), 3.5 mW/cm^2, 10 min", "result": "Inactive"}, {"measurement": "IC50", "setting": "[4]; [9]", "result": 4.7, "unit": "µM"}]}
{"molecule": "OC[C@H]1O[C@H](Sc2c(F)c(F)c(-c3c4nc(c(-c5c(F)c(F)c(F)c(F)c5F)c5ccc([nH]5)c(-c5c(F)c(F)c(F)c(F)c5F)c5nc(c(-c6c(F)c(F)c(F)c(F)c6F)c6ccc3[nH]6)C=C5)C=C4)c(F)c2F)[C@@H](O)[C@@H](O)[C@@H]1O", "note": "[Compound 30]", "values": [{"measurement": "Photocytotoxicity RBY-79, % at 2 μg/ml", "setting": "[2]", "result": 90, "unit": "% 2 μg/ml"}]}
{"molecule": "TPP(p-OC3-S-α-MannOH)3 [Compound 24]", "values": [{"measurement": "Cytotoxicity L-1210 (no light), concentration giving 50%", "setting": "[1]; 50% effect, no light", "result": 50, "unit": "% 14 μg/ml"}, {"measurement": "Photocytotoxicity HT 29, concentration giving 50%", "setting": "[3]; 50% effect, with light", "result": 4.6, "unit": "µg/mL"}, {"measurement": "IC50", "setting": "[3]; [7]", "result": 3.2, "unit": "µM"}, {"measurement": "IC50", "setting": "[3]; [8]", "result": 3.2, "unit": "µM"}, {"measurement": "phototoxic for HT29 (in words)", "setting": "[3]; [10]", "result": "less phototoxic"}, {"measurement": "cytotoxic for HT29 (in words)", "setting": "[3]; [11]", "result": "cytotoxic"}, {"measurement": "active when activated by light towards tumoral cells (in words)", "setting": "[5]", "result": "active"}, {"measurement": "Photocytotoxicity RBY-79, concentration giving 50%", "setting": "[4]; 50% effect, with light", "result": 6.5, "unit": "µg/mL"}, {"measurement": "IC50", "setting": "[4]; [12]", "result": 4.7, "unit": "µM"}, {"measurement": "IC50", "setting": "[4]; [9]", "result": 7.5, "unit": "µM"}, {"measurement": "phototoxic for Y79 (in words)", "setting": "[4]; [10]", "result": "less phototoxic"}, {"measurement": "cytotoxic for Y79 (in words)", "setting": "[4]; [11]", "result": "cytotoxic"}]}
{"molecule": "5, 10, 15-tri(meta-hydroxyphenyl)-20-phenyl)-2,3-chlorin and 5,10,15-tri(3-hydroxyphenyl)-7,8-chlorin [Compound 77-78]", "values": [{"measurement": "IC50", "setting": "[3]; [7]", "result": "1.5 ± 0.07", "unit": "µM"}, {"measurement": "IC50", "setting": "[3]; [8]", "result": "6.6 ± 0.9", "unit": "µM"}, {"measurement": "cytotoxic for HT29 (in words)", "setting": "[6]", "result": "cytotoxic"}, {"measurement": "IC50", "setting": "[4]; [12]", "result": "0.6 ± 0.1", "unit": "µM"}, {"measurement": "IC50", "setting": "[4]; [9]", "result": "> 10", "unit": "µM"}]}
